Patent US10183943B2, “Heterocyclic compounds and their use in preventing or treating bacterial infections” (MUTABILIS, priority 2015, dated 2019)

What was measured:
TEM-1 = target: T1, TEM-1 (Escherichia coli, UniProt P62593); test: β-lactamase inhibitory activity, determination of IC50 (nitrocefin hydrolysis); format: biochemical
T1 construct: made in house; host or cells: E. coli

SHV-1 = target: T2, SHV-1 (Klebsiella pneumoniae, UniProt P0AD64); test: as above; format: biochemical
T2 construct: made in house; host or cells: E. coli

CTX-M-15 = target: T3, CTX-M-15 (Escherichia coli, UniProt Q9EXV5); test: as above; format: biochemical
T3 construct: made in house; host or cells: E. coli

KPC-2 = target: T4, KPC-2 (Klebsiella pneumoniae, UniProt Q9F663); test: as above; format: biochemical
T4 construct: made in house; host or cells: E. coli

OXA-1 = target: T5, OXA-1 (Escherichia coli, UniProt P13661); test: as above; format: biochemical
T5 construct: made in house; host or cells: E. coli

OXA-11 = target: T6, OXA-11 (Pseudomonas aeruginosa, UniProt Q06778); test: as above; format: biochemical
T6 construct: made in house; host or cells: E. coli

OXA-15 = target: T7, OXA-15 (Pseudomonas aeruginosa, UniProt Q51574); test: biochemical
T7 construct: made in house; host or cells: E. coli

OXA-48 = target: T8, OXA-48 (Klebsiella pneumoniae, UniProt Q6XEC0); test: β-lactamase inhibitory activity, determination of IC50 (nitrocefin hydrolysis); format: biochemical
T8 construct: made in house; host or cells: E. coli

[1] = system: E. cloacae 260508 (TEM-1, CTX-M-15); test: MIC of compounds alone, broth microdilution; format: cell-based; details: Enterobacter cloacae, read-out: MIC compounds of the invention alone
How it was run: (§1)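 Broth microdilution per CLSI M7-A7: compounds alone, in DMSO, challenged with log-phase bacteria at 5×10^5 cfu/mL in cation-adjusted Mueller-Hinton broth. Plates incubated 16-20 h at 35° C in ambient air; MIC is the lowest concentration preventing visible growth.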

E. cloacae P99 (AmpC) = test: MIC of compounds alone, broth microdilution; format: cell-based; details: Enterobacter cloacae, read-out: MIC compounds of the invention alone
How it was run: as §1

[2] = system: E. cloacae UFR51 (SHV-12, IMP-8); test: MIC of compounds alone, broth microdilution; format: cell-based; details: Enterobacter cloacae, read-out: MIC compounds of the invention alone
How it was run: as §1

[3] = system: E. cloacae UFR70 (TEM-1, CTX-M-15, CMY-2, OXA-1, Porin loss); test: MIC of compounds alone, broth microdilution; format: cell-based; details: Enterobacter cloacae, read-out: MIC compounds of the invention alone
How it was run: as §1

[4] = system: E. cloacae UFR85 (TEM-1, CTX-M-15, AmpC); test: MIC of compounds alone, broth microdilution; format: cell-based; details: Enterobacter cloacae, read-out: MIC compounds of the invention alone
How it was run: as §1

[5] = system: E. coli 131119 (TEM-1, OXA-48); test: MIC of compounds alone, broth microdilution; format: cell-based; details: Escherichia coli, read-out: MIC compounds of the invention alone
How it was run: as §1

[6] = system: E. coli 190317 (TEM-1, SHV-12, CTX-M-15, OXA-1); test: MIC of compounds alone, broth microdilution; format: cell-based; details: Escherichia coli, read-out: MIC compounds of the invention alone
How it was run: as §1

E. coli RGN238 (OXA-1) = test: MIC of compounds alone, broth microdilution; format: cell-based; details: Escherichia coli, read-out: MIC compounds of the invention alone
How it was run: as §1

[7] = system: E. coli UFR18 (CTX-M-15, OXA-204); test: MIC of compounds alone, broth microdilution; format: cell-based; details: Escherichia coli, read-out: MIC compounds of the invention alone
How it was run: as §1

[8] = system: E. coli UFR32 (TEM-1, VEB-1, OXA-10); test: MIC of compounds alone, broth microdilution; format: cell-based; details: Escherichia coli, read-out: MIC compounds of the invention alone
How it was run: as §1

[9] = system: E. coli UFR41 (TEM-1, CTX-M-15, CMY-2, OXA-1, NDM-4); test: MIC of compounds alone, broth microdilution; format: cell-based; details: Escherichia coli, read-out: MIC compounds of the invention alone
How it was run: as §1

[10] = system: E. coli UFR61O (TEM-1, KPC-2); test: MIC of compounds alone, broth microdilution; format: cell-based; details: Escherichia coli, read-out: MIC compounds of the invention alone
How it was run: as §1

[11] = system: E. coli UFR74 (SHV-1, DHA-1); test: MIC of compounds alone, broth microdilution; format: cell-based; details: Escherichia coli, read-out: MIC compounds of the invention alone
How it was run: as §1

[12] = system: K. oxytoca UFR21 (TEM-1, CTX-M-15, OXA-48); test: MIC of compounds alone, broth microdilution; format: cell-based; details: Klebsiella oxytoca, read-out: MIC compounds of the invention alone
How it was run: as §1

[13] = system: K. pneumoniae 160143 (TEM-1, SHV-1, CTX-M-15, KPC-2, OXA-1); test: MIC of compounds alone, broth microdilution; format: cell-based; details: Klebsiella pneumoniae, read-out: MIC compounds of the invention alone
How it was run: as §1

[14] = system: K. pneumoniae 200047 (TEM-1, SHV-32, CTX-M-15, OXA-1); test: MIC of compounds alone, broth microdilution; format: cell-based; details: Klebsiella pneumoniae, read-out: MIC compounds of the invention alone
How it was run: as §1

[15] = system: K. pneumoniae 6299 (TEM-1, SHV-11, OXA-163); test: MIC of compounds alone, broth microdilution; format: cell-based; details: Klebsiella pneumoniae, read-out: MIC compounds of the invention alone
How it was run: as §1

[16] = system: K. pneumoniae BAA-1898 (TEM-1, SHV-11, SHV-12, KPC-2); test: MIC of compounds alone, broth microdilution; format: cell-based; details: Klebsiella pneumoniae, BAA1898, read-out: MIC compounds of the invention alone
How it was run: as §1

[17] = system: K. pneumoniae UFR24 (TEM-1, SHV-2, SHV-11, OXA-1, OXA-48, OXA-47); test: MIC of compounds alone, broth microdilution; format: cell-based; details: Klebsiella pneumoniae, read-out: MIC compounds of the invention alone
How it was run: as §1

[18] = system: K. pneumoniae UFR39 (CTX-M-15, NDM-1); test: MIC of compounds alone, broth microdilution; format: cell-based; details: Klebsiella pneumoniae, read-out: MIC compounds of the invention alone
How it was run: as §1

[19] = system: K. pneumoniae UFR68 (TEM-1, SHV-11, CTX-M-15, KPC-3); test: MIC of compounds alone, broth microdilution; format: cell-based; details: Klebsiella pneumoniae, read-out: MIC compounds of the invention alone
How it was run: as §1

[20] = system: K. pneumoniae UFR77 (CMY-2); test: MIC of compounds alone, broth microdilution; format: cell-based; details: Klebsiella pneumoniae, read-out: MIC compounds of the invention alone
How it was run: as §1

[21] = system: P. aeruginosa CIP107051 (TEM-24); test: MIC of compounds alone, broth microdilution; format: cell-based; details: Pseudomonas aeruginosa, CIP107051, read-out: MIC compounds of the invention alone
How it was run: as §1

AmpC (P99) = AmpC (P99) (Enterobacter cloacae, UniProt P05364); test: β-lactamase inhibitory activity, determination of IC50 (nitrocefin hydrolysis)
AmpC P. aeruginosa = AmpC P. aeruginosa (Pseudomonas aeruginosa, UniProt P24735); test: as above
AmpC P. aeruginosa, sequence (P24735 27-397): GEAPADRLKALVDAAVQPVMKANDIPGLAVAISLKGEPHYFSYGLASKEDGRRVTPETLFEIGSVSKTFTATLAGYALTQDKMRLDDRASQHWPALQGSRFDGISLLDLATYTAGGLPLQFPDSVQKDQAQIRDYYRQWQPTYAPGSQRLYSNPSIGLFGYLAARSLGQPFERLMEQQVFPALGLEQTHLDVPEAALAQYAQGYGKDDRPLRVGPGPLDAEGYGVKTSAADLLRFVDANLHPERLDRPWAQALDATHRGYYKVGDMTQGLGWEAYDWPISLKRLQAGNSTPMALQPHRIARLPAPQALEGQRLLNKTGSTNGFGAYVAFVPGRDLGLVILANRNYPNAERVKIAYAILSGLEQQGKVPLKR

T6 sequence (Q06778 21-266): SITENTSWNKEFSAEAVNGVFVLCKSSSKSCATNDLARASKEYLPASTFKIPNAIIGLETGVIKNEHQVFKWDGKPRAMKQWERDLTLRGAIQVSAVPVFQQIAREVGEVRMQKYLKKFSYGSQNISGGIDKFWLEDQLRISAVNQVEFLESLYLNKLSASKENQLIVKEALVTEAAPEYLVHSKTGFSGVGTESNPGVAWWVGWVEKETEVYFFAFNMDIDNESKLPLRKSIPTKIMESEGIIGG
T4 sequence (Q9F663 25-293 limits assumed): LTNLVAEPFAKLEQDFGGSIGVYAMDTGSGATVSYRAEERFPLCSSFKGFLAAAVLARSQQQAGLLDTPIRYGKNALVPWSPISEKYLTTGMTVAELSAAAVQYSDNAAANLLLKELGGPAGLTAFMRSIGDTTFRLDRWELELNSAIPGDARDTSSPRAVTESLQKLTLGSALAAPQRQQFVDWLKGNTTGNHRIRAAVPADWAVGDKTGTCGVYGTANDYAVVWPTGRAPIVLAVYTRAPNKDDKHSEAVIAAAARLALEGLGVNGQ
T1 sequence (P62593 24-286 limits assumed): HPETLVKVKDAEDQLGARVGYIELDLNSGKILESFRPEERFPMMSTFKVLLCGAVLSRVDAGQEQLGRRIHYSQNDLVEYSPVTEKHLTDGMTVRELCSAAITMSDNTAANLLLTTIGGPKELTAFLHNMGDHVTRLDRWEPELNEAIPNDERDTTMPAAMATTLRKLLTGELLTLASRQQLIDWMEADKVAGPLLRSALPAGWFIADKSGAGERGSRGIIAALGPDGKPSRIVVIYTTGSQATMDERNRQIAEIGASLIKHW
T5 sequence (P13661 26-276): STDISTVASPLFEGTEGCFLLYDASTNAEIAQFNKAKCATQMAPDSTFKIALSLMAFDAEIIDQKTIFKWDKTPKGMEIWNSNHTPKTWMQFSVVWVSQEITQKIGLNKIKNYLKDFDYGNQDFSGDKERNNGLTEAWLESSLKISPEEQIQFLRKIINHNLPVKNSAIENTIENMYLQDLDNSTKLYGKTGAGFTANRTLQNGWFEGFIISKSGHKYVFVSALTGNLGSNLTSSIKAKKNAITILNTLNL
T8 sequence (Q6XEC0 23-265 limits assumed): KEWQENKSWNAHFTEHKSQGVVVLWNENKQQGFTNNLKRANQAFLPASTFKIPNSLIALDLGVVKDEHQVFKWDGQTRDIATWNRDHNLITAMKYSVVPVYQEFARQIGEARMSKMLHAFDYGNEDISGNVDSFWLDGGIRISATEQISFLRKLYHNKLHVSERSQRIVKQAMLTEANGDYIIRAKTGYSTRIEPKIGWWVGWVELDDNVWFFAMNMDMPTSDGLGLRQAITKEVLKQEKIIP
T2 sequence (P0AD64 22-286): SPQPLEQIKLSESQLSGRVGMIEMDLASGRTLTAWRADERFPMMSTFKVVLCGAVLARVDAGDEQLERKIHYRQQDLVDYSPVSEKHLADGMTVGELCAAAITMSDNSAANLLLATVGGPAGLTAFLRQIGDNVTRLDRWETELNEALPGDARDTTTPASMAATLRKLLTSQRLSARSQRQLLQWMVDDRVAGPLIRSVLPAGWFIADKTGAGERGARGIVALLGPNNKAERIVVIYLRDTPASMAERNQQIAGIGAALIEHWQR
AmpC (P99), sequence (P05364 21-381): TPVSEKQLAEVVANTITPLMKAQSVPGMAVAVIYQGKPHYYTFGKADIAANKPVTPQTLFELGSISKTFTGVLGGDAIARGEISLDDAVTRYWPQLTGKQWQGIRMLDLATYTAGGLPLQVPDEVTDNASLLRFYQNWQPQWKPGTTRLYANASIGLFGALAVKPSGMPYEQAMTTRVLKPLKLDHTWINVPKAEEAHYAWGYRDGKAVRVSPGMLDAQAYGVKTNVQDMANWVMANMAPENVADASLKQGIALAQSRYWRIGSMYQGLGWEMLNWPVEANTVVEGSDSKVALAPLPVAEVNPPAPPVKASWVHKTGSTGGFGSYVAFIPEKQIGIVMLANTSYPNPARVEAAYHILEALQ
T7 sequence (Q51574 22-275): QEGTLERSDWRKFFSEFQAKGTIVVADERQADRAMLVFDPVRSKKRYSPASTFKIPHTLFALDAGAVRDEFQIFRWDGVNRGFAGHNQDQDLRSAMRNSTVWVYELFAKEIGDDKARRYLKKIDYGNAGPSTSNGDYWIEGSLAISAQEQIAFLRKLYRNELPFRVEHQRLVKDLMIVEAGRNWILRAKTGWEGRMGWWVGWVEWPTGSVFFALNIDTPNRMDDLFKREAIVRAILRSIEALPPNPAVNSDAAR
T3 sequence (Q9EXV5 entry or part of it): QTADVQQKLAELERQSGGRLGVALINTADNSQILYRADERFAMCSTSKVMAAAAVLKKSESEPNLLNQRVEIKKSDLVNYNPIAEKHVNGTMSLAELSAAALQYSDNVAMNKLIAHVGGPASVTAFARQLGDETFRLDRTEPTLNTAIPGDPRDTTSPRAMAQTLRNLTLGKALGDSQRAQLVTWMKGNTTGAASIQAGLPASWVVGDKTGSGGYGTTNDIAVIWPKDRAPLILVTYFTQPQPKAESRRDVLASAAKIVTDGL

Q: How did the IC50 (TEM-1) turn out when `O=C1N2CC(c3ncco3)=C[C@H](C2)N1OC(F)(F)C(=O)O` (racemic) [Example 37] was run?
A: 1.6 nM

Q: And the IC50 (SHV-1)?
A: 13 nM

Q: What about the IC50 (CTX-M-15) of the same compound?
A: 0.57 nM

Q: And the IC50 (KPC-2)?
A: 53 nM

Q: And the IC50 (OXA-1)?
A: 7400 nM

Q: And the IC50 (OXA-11)?
A: 210 nM

Q: And the IC50 (OXA-15)?
A: 59 nM

Q: And the IC50 (OXA-48)?
A: 1.8 nM

Q: What about the MIC [1] of the same compound?
A: 4 µg/mL

Q: And the MIC (E. cloacae P99 (AmpC))?
A: 8 µg/mL

Q: What about the MIC [2] of the same compound?
A: 4 µg/mL

Q: And the MIC [3]?
A: 2 µg/mL

Q: What about the MIC [4] of the same compound?
A: 2 µg/mL

Q: What about the MIC [5] of the same compound?
A: 2 µg/mL

Q: What about the MIC [6] of the same compound?
A: 2 µg/mL

Q: What about the MIC (E. coli RGN238 (OXA-1)) of the same compound?
A: 2 µg/mL

Q: What about the MIC [7] of the same compound?
A: 2 µg/mL

Q: And the MIC [8]?
A: 2 µg/mL

Q: What about the MIC [9] of the same compound?
A: 16 µg/mL

Q: What about the MIC [10] of the same compound?
A: 8 µg/mL

Q: And the MIC [11]?
A: 4 µg/mL

Q: And the MIC [12]?
A: 4 µg/mL

Q: And the MIC [13]?
A: 4 µg/mL

Q: And the MIC [14]?
A: 2 µg/mL

Q: And the MIC [15]?
A: 8 µg/mL

Q: What about the MIC [16] of the same compound?
A: 4 µg/mL

Q: What about the MIC [17] of the same compound?
A: 4 µg/mL

Q: What about the MIC [18] of the same compound?
A: 8 µg/mL

Q: And the MIC [19]?
A: 4 µg/mL

Q: And the MIC [20]?
A: 4 µg/mL

Q: What about the MIC [21] of the same compound?
A: > 128 µg/mL

Q: And the IC50 (AmpC (P99))?
A: 630 nM

Q: And the IC50 (AmpC P. aeruginosa)?
A: 240 nM
